From patent publication US4767749A, “Ester of (triarylphosphoranylidene)carbamic acid having diuretic and ability to lower plasma renin properties” (American Cyanamid Company, priority 1986, dated 1988)
Counter-ions that a name gives are not always drawn.

System: spontaneously hypertensive rats (SHR)
Experiment: Diuretic activity in spontaneously hypertensive rats
Format: in vivo, male spontaneously hypertensive rats (Okamoto strain)
Details: 100 mg/kg by gavage with 0.9% sodium chloride loading 25 ml/kg; 0-5 hour urine
Protocol: The diuretic activity of the compounds of this invention was also determined according to the method of Chan, P. S. and Poorvin, D., Sequential method for combined screening antihypertensive and diuretic agents in the same spontaneously hypertensive rat. Clinical and Experimental Hypertension, 1(6), 817-830 (1979).
Male spontaneously hypertensive rats (SHR) of Okamoto strain, 16 weeks old, Taconic Farms Inc. were used in the test. These rats were kept on Purina laboratory chow and tap water ad libitum for 8 weeks before use. One male adult rat (about 300 g) was dosed by gavage with a test compound at 100 mg/kg together with 0.9% sodium chloride loading at 25 ml/kg at zero hour. The test compound was suspended in 3% preboiled starch at 50 mg/ml. The rat was put in a metabolism cage. The 0-5 hour urine was collected and urinary sodium and potassium were determined using a Beckman Astra 4. The effects of representative compounds of the invention according to this test appear in Table III expressed in milliequivalents (mEQ) of urinary sodium and potassium excreted.

| Structure (SMILES) | Potassium (urinary excretion) [mEQ/5 Hours] | Sodium (urinary excretion) [mEQ/5 Hours] | Volume (urine) [mL] |
| --- | --- | --- | --- |
| CCO[C@@H]1CCC[C@H]1OC(=O)N=P(c1ccccc1)(c1ccccc1)c1ccccc1 (relative stereo) [(triphenylphosphoranylidene)carbamic acid, trans-2-ethoxycyclopentyl ester] | 0.73 | 1.38 | 13.3 |
| CCOC(=O)N=P(c1ccccc1)(c1ccccc1)c1cccc(F)c1 [[[(3-fluorophenyl)diphenylphosphoranylidene]carbamic acid, ethyl ester] | 0.62 | 2.44 | 24.0 |
| CC(=O)CCCOC(=O)N=P(c1ccccc1)(c1ccccc1)c1ccccc1 [(triphenylphosphoranylidene)carbamic acid, 4-oxo-pentan-1-yl ester] | 0.58 | 1.16 | 13.3 |
| COC1CCCCC1OC(=O)N=P(c1ccccc1)(c1ccccc1)c1ccccc1 (stereo not drawn) [(triphenylphosphoranylidene)carbamic acid, cis- and trans-2-methoxycyclohexyl ester] | 0.59 | 1.15 | 11.3 |
| O=C(N=P(c1ccccc1)(c1ccccc1)c1ccccc1)OC1CCc2ccccc21 (stereo not drawn) [(Triphenylphosphoranylidene)carbamic acid, 2,3-dihydro-1 --H--inden-1-yl ester] | 0.87 | 1.41 | 13.0 |
| O=C(N=P(c1ccccc1)(c1ccccc1)c1ccccc1)OCC1CC1 [(Triphenylphosphoranylidene)carbamic acid, cyclopropylmethyl ester] | 0.57 | 2.00 | 19.5 |
| C[C@@H]1CCC[C@H]1OC(=O)N=P(c1ccccc1)(c1ccccc1)c1ccccc1 (relative stereo) [(triphenylphosphoranylidene)carbamic acid, trans-2-methylcyclopentyl ester] | 0.68 | 1.55 | 14.3 |
| CCOC(=O)N=P(c1ccccc1)(c1ccccc1)c1cccc(Cl)c1Cl [[(2,3-dichlorophenyl)diphenylphosphoranylidene]carbamic acid ethyl ester] | 0.86 | 1.83 | 14.3 |
| O=C(N=P(c1ccccc1)(c1ccccc1)c1ccccc1)OCC1CCC1 [(Triphenylphosphoranylidene)carbamic acid, cyclobutylmethyl ester] | 0.60 | 1.47 | 14.5 |
| CCOC(=O)N=P(c1ccccc1)(c1ccccc1)c1cccc(C(F)(F)F)c1 [[(3-trifluorophenyl)diphenylphosphoranylidene]carbamic acid, ethyl ester] | 0.67 | 1.38 | 13.5 |
| CCC1(OC(=O)N=P(c2ccccc2)(c2ccccc2)c2ccccc2)CCCC1 [(triphenylphosphoranylidene)carbamic acid, 1-ethylcyclopentyl ester] | 1.01 | 1.34 | 12.5 |
| N=P(c1ccccc1)(c1ccccc1)c1ccccc1 [Triphenylphosphinimide sulfate] | 0.65 | 1.25 | 12.0 |
| COC(=O)N=P(c1ccccc1)(c1ccccc1C)c1ccccc1C [[Bis(2-methylphenyl)phenylphosphoranylidene]carbamic acid, methyl ester] | 0.76 | 1.45 | 13.5 |
